# According to patent publication US20020035061A1, “COMPOSITIONS AND METHODS FOR TREATING INFECTIONS USING CATIONIC PEPTIDES ALONE OR IN COMBINATION WITH ANTIBIOTICS” (priority 1996, published 2002):
# Peptide text beside a SMILES is read from it.
# Assays:
# Assay in all cases: microbe, parasite or virus in culture
# Assay type in all cases: cell-based
# [1] = test system: microorganisms with acquired resistance; details: for Peptide MIC: in µg/mL
# [2] = test system: S. aureus; details: S. aureus SA25
# [3] = test system: inherently resistant microorganisms
# [4] = test system: bacterial isolates; details: for Peptide MIC Alone: Tobramycin section
# [5] = test system: vancomycin / teicoplanin resistant enterococci
# [6] = S. aureus SA014 (also SA014 MRSA)
# [7] = S. aureus SA025 (also SA025 MRSA)
compound,measurement,setting,value
CC[C@H](C)[C@H](NC(=O)[C@H](C)NC(=O)[C@@H]1CCCN1C(=O)CNC(=O)[C@H](C)NC(=O)[C@@H](NC(=O)[C@H](CCCCN)NC(=O)[C@H](CC(C)C)NC(=O)CNC(=O)[C@H](CO)NC(=O)[C@H](CC(C)C)NC(=O)[C@@H](NC(=O)[C@H](CCCNC(=N)N)NC(=O)[C@H](CCCNC(=N)N)NC(=O)[C@H](Cc1c[nH]c2ccccc12)NC(=O)[C@H](Cc1c[nH]c2ccccc12)NC(=O)[C@H](CCCCN)NC(=O)[C@@H](N)CCCCN)C(C)C)[C@@H](C)O)C(=O)N[C@@H](CCC(N)=O)C(=O)N[C@@H](CO)C(=O)N[C@H](C(=O)N[C@@H](CC(C)C)C(=O)N[C@@H](CC(N)=O)C(=O)N[C@@H](CCCCN)C(=O)O)C(C)C [MBI 21A1] (H-KKWWRRVLSGLKTAGPAIQSVLNK-OH; N-terminus and C-terminus assumed),Peptide MIC + Tobramycin,[1]; P. aeruginosa PA022,0.125 µg/mL
same,Tobramycin MIC + Peptide,[1]; P. aeruginosa PA022,4 µg/mL
same,Peptide MIC Alone,"[1]; P. aeruginosa PA022, Tobramycin section",4 µg/mL
same,Peptide MIC + Tobramycin,[1]; P. aeruginosa PA026,0.125 µg/mL
same,Tobramycin MIC + Peptide,[1]; P. aeruginosa PA026,4 µg/mL
same,Peptide MIC Alone,"[1]; P. aeruginosa PA026, Tobramycin section",16 µg/mL
same,Peptide MIC + Tobramycin,[1]; P. aeruginosa PA030,8 µg/mL
same,Tobramycin MIC + Peptide,[1]; P. aeruginosa PA030,0.25 µg/mL
same,Peptide MIC Alone,"[1]; P. aeruginosa PA030, Tobramycin section",16 µg/mL
same,Peptide MIC + Tobramycin,[1]; P. aeruginosa PA032,32 µg/mL
same,Tobramycin MIC + Peptide,[1]; P. aeruginosa PA032,1 µg/mL
same,Peptide MIC Alone,"[1]; P. aeruginosa PA032, Tobramycin section",64 µg/mL
same,Ciprofloxacin MIC + Peptide,[1]; P. aeruginosa PA41,1 µg/mL
same,Peptide MIC + Ciprofloxacin,[1]; P. aeruginosa PA41,4 µg/mL
same,Peptide MIC Alone,"[1]; P. aeruginosa PA41, Ciprofloxacin section",16 µg/mL
same,Ciprofloxacin MIC + Peptide,[1]; P. aeruginosa PA77,1 µg/mL
same,Peptide MIC + Ciprofloxacin,[1]; P. aeruginosa PA77,16 µg/mL
same,Peptide MIC Alone,"[1]; P. aeruginosa PA77, Ciprofloxacin section",32 µg/mL
same,Peptide MIC,"[1]; P. aeruginosa, combination with Ciprofloxacin",16
same,Peptide MIC,"[1]; S. aureus, combination with Ciprofloxacin",2
same,Peptide MIC,"[1]; S. aureus, combination with Mupirocin",16
same,Peptide MIC + Tobramycin,[1]; S. maltophilia SMA029,32 µg/mL
same,Tobramycin MIC + Peptide,[1]; S. maltophilia SMA029,4 µg/mL
same,Peptide MIC Alone,"[1]; S. maltophilia SMA029, Tobramycin section",128 µg/mL
same,Peptide MIC + Tobramycin,[1]; S. maltophilia SMA030,32 µg/mL
same,Tobramycin MIC + Peptide,[1]; S. maltophilia SMA030,4 µg/mL
same,Peptide MIC Alone,"[1]; S. maltophilia SMA030, Tobramycin section",>128 µg/mL
same,Ciprofloxacin MIC + Peptide,[2],0.125 µg/mL
same,Peptide MIC + Ciprofloxacin,[2],4 µg/mL
same,Peptide MIC Alone,"[3]; E. coli, Mupirocin section",2 µg/mL
same,FIC,"[3]; peptide + Tobramycin, S. aureus",0.50
same,Peptide MIC + Tobramycin,[4]; B. cepacia BC001,0.25 µg/mL
same,Tobramycin MIC + Peptide,[4]; B. cepacia BC001,32 µg/mL
same,Peptide MIC Alone,[4]; B. cepacia BC001,>128 µg/mL
same,Mupirocin MIC + Peptide,[4]; E. coli ECO3,3 µg/mL
same,Peptide MIC + Mupirocin,[4]; E. coli ECO3,2 µg/mL
same,Mupirocin MIC + Peptide,[4]; E. coli SBECO2,30 µg/mL
same,Peptide MIC + Mupirocin,[4]; E. coli SBECO2,2 µg/mL
same,Peptide MIC + Vancomycin,[4]; E. faecalis EFS007,1 µg/mL
same,Vancomycin MIC + Peptide,[4]; E. faecalis EFS007,1 µg/mL
same,Peptide MIC + Vancomycin,[4]; E. faecalis EFS012,1 µg/mL
same,Vancomycin MIC + Peptide,[4]; E. faecalis EFS012,16 µg/mL
same,Peptide MIC + Vancomycin,[4]; E. faecalis EFS013,1 µg/mL
same,Vancomycin MIC + Peptide,[4]; E. faecalis EFS013,32 µg/mL
same,Peptide MIC + Vancomycin,[4]; E. faecium EFM010,2 µg/mL
same,Vancomycin MIC + Peptide,[4]; E. faecium EFM010,32 µg/mL
same,Ciprofloxacin MIC + Peptide,[4]; P. aeruginosa PA4,0.125 µg/mL
same,Peptide MIC + Ciprofloxacin,[4]; P. aeruginosa PA4,32 µg/mL
same,Peptide MIC + Tobramycin,[4]; P. aeruginosa PA022,0.125 µg/mL
same,Tobramycin MIC + Peptide,[4]; P. aeruginosa PA022,4 µg/mL
same,Peptide MIC Alone,[4]; P. aeruginosa PA022,4 µg/mL
same,Peptide MIC + Tobramycin,[4]; P. aeruginosa PA026,0.125 µg/mL
same,Tobramycin MIC + Peptide,[4]; P. aeruginosa PA026,4 µg/mL
same,Peptide MIC Alone,[4]; P. aeruginosa PA026,16 µg/mL
same,Ciprofloxacin MIC + Peptide,[4]; P. aeruginosa PA41,1 µg/mL
same,Peptide MIC + Ciprofloxacin,[4]; P. aeruginosa PA41,4 µg/mL
same,Mupirocin MIC + Peptide,[4]; P. aeruginosa SBPA1,30 µg/mL
same,Peptide MIC + Mupirocin,[4]; P. aeruginosa SBPA1,32 µg/mL
same,Peptide MIC + Tobramycin,[4]; [6],16 µg/mL
same,Tobramycin MIC + Peptide,[4]; [6],0.125 µg/mL
same,Peptide MIC Alone,[4]; [6],32 µg/mL
same,Ciprofloxacin MIC + Peptide,[4]; S. aureus SA25,0.125 µg/mL
same,Peptide MIC + Ciprofloxacin,[4]; S. aureus SA25,4 µg/mL
same,Peptide MIC + Tobramycin,[4]; [7],1 µg/mL
same,Tobramycin MIC + Peptide,[4]; [7],0.125 µg/mL
same,Peptide MIC Alone,[4]; [7],2 µg/mL
same,Ciprofloxacin MIC + Peptide,[4]; S. aureus SA93,8 µg/mL
same,Peptide MIC + Ciprofloxacin,[4]; S. aureus SA93,1 µg/mL
same,Peptide MIC + Tobramycin,[4]; S. haemolyticus SHA001,4 µg/mL
same,Tobramycin MIC + Peptide,[4]; S. haemolyticus SHA001,0.5 µg/mL
same,Peptide MIC Alone,[4]; S. haemolyticus SHA001,16 µg/mL
same,Peptide MIC + Tobramycin,[4]; S. haemolyticus SHA005,4 µg/mL
same,Tobramycin MIC + Peptide,[4]; S. haemolyticus SHA005,1 µg/mL
same,Peptide MIC Alone,[4]; S. haemolyticus SHA005,32 µg/mL
same,Peptide MIC + Tobramycin,[4]; S. maltophilia SMA029,32 µg/mL
same,Tobramycin MIC + Peptide,[4]; S. maltophilia SMA029,4 µg/mL
same,Peptide MIC Alone,[4]; S. maltophilia SMA029,128 µg/mL
same,Peptide MIC + Tobramycin,[4]; S. maltophilia SMA030,32 µg/mL
same,Tobramycin MIC + Peptide,[4]; S. maltophilia SMA030,4 µg/mL
same,Peptide MIC Alone,[4]; S. maltophilia SMA030,>128 µg/mL
same,FIC,"[4]; peptide + Ciprofloxacin, P. aeruginosa PA4",0.50
same,FIC,"[4]; peptide + Ciprofloxacin, P. aeruginosa PA41",0.50
same,FIC,"[4]; peptide + Ciprofloxacin, S. aureus SA25",0.16
same,FIC,"[4]; peptide + Ciprofloxacin, S. aureus SA93",0.50
same,FIC,"[4]; peptide + Mupirocin, E. coli ECO3",0.28
same,FIC,"[4]; peptide + Mupirocin, E. coli SBECO2",0.28
same,FIC,"[4]; peptide + Mupirocin, P. aeruginosa SBPA1",0.53
same,FIC,"[4]; peptide + Tobramycin, B. cepacia BC001",0.25
same,FIC,"[4]; peptide + Tobramycin, P. aeruginosa PA022",0.53
same,FIC,"[4]; peptide + Tobramycin, P. aeruginosa PA026",0.51
same,FIC,"[4]; peptide + Tobramycin, S. aureus SA014 (also SA014 MRSA)",0.50
same,FIC,"[4]; peptide + Tobramycin, S. aureus SA025 (also SA025 MRSA)",0.50
same,FIC,"[4]; peptide + Tobramycin, S. haemolyticus SHA001",0.50
same,FIC,"[4]; peptide + Tobramycin, S. haemolyticus SHA005",0.38
same,FIC,"[4]; peptide + Tobramycin, S. maltophilia SMA029",0.28
same,FIC,"[4]; peptide + Tobramycin, S. maltophilia SMA030",0.16
same,FIC,"[4]; peptide + Vancomycin, E. faecalis EFS007",0.56
same,FIC,"[4]; peptide + Vancomycin, E. faecalis EFS012",0.16
same,FIC,"[4]; peptide + Vancomycin, E. faecalis EFS013",0.28
same,FIC,"[4]; peptide + Vancomycin, E. faecium EFM010",0.56
same,Peptide MIC + Vancomycin,[5]; E. faecalis EFS012,2 µg/mL
same,Vancomycin MIC + Peptide,[5]; E. faecalis EFS012,4 µg/mL
same,Peptide MIC + Vancomycin,[5]; E. faecalis EFS013,2 µg/mL
same,Vancomycin MIC + Peptide,[5]; E. faecalis EFS013,4 µg/mL
same,Vancomycin MIC + Peptide,"[5]; in combination with the labelled peptide, E. faecium EFM010",4 µg/mL
same,Peptide MIC + Vancomycin,"[5]; in combination with vancomycin, E. faecium EFM010",16 µg/mL
